Assay results as given in patent publication US12678511B2, “Peptide and use thereof” (Kansai Medical University Educational Corgoration, priority 2019, dated 2026).
Entries after “also recorded” stand apart in the source; their conditions may differ. Peptide text beside a SMILES is read from it.

Tests used:
hMSC [1] = experiment: Intracellular localization of [FAM]-tandem MSCPP106 in hMSC; format: cell-based, human; settings: [FAM]-labelled, 4 μM, fluorescence maintained in lysosomes, FIG. 6
Protocol: Next, the intracellular localization of [FAM]-tandem MSCPP106 was investigated. Specifically, hMSC were inoculated into a 24-well plate to achieve 4×10^4 cells/well, and four hours after the inoculation, the medium was replaced with an RPMI medium containing 10% FBS, and culturing was conducted for 60 hours. Following culturing, a medium (RPMI 1640 medium containing 10% FBS) containing 4 μM of [FAM]-tandem MSCPP106 was added to the hMSC and cultured for 24 hours. Following culturing, nuclear staining was conducted with Hoechst 33342 (excitation wavelength: 352 nm, fluorescence wavelength: 461 nm), lysosomes were also stained using LysoTracker (a registered trademark) RED DND-99 (a lysosome content marker, excitation wavelength: 555 nm, fluorescence wavelength: 584 nm), and the cultures were then observed using a phase difference/fluorescence microscope (magnification: 60×). In FIG. 6, “Merge” indicates a merged image of the FAM fluorescence image and the LysoTracker (a registered trademark) RED DND-99 fluorescence image.

[2] = Degradation resistance in human plasma (MALDI-TOFMS); format: in vitro ADME; settings: human plasma 50% by mass, 0 to 120 minutes, FIG. 4
Description: For the single peptide, tandem peptide, and tandem mutated peptide of MSCPP106 shown below in Table 2, the degradation resistance in human plasma was investigated. In Table 2, “tandem MSCPP106” describes a peptide composed of sequence containing two repeated amino acid sequences for MSCPP106 linked via a glycine residue spacer. Further, “tandem mut MSCPP106” describes a peptide composed of a sequence in which the cysteine residues in the amino acid sequence of tandem MSCPP106 have been methylated (mC).
Each of the above peptides was added to human plasma with a concentration of 50% by mass, the mixture was then sampled immediately after starting the degradation test (0 minutes), and then after 5 minutes, after 10 minutes, after 20 minutes, after 30 minutes, after 60 minutes and after 120 minutes, and each sample was analyzed by MALDI-TOFMS (Matrix Assisted Laser Desorption/Ionization-Time of Flight Mass Spectrometry). The ratio of the mass of the retained peptide that had not degraded at each of the sampling points from the start of the test, relative to the mass of the peptide (100% by mass) at the start of the test was calculated and graphed (see FIG. 4).

[3] = system: CAF of the cancer stroma, subcutaneous tumor; experiment: Absorption into CAF of cancer stroma in scirrhous cancer model mouse; format: in vivo; settings: [FAM]-labelled, 300 μg intravenous, 30 minutes after injection, FIG. 8C
Protocol: Using the same method as Example 7, a scirrhous cancer model mouse was obtained. Subsequently, the obtained scirrhous cancer model mouse was injected intravenously with [FAM]-tandem MSCPP106 (300 μg). Subsequently, the pharmacokinetics of the peptide 30 minutes after the intravenous injection were analyzed by tissue analysis of the freshly dissected specimen of the peptide-administered mouse.
FIG. 8C is a series of phase difference microscope images and fluorescent images of the subcutaneous tumor. The upper two rows are images at a magnification of 20×, whereas the lower two rows are images at a magnification of 40×. Further, “Merge” represents merged images of each phase difference microscope image and each fluorescent image.

[4] = system: cancer stroma, subcutaneous tumor (BxPC3 cells and DsRed2 hMSC); experiment: Absorption of [FAM]-tandem and [FAM]-tandem mut MSCPP106 into cancer stroma in scirrhous pancreatic cancer model mice; format: in vivo, mouse; settings: [FAM]-labelled, 300 μg intravenous, 60 minutes after injection
Description: Next, in order to investigate the functional importance of the cysteine within the peptide sequence (positioned second from the N-terminus), a comparison was made of the absorption into cancer stroma of [FAM]-tandem MSCPP106 and [FAM]-tandem mut MSCPP106 (having a sequence in which the N-terminus is labeled with FAM, and having a mutation in which the side-chain —SH group of the cysteine second from the N-terminus has been methylated). With the exception of using cloned hMSC cells that constantly expressed DsRed2, the same method as Example 7 was used to obtain scirrhous pancreatic cancer model mice. Subsequently, the obtained scirrhous pancreatic cancer model mice were injected intravenously with [FAM]-tandem MSCPP106 or [FAM]-tandem mut MSCPP106 (300 μg in each case). In each case, the pharmacokinetics of the peptide 60 minutes after the intravenous injection were then analyzed by tissue analysis of the freshly dissected specimen of the peptide-administered mouse.
FIG. 9B is a series of fluorescent images of subcutaneous tumors in mice administered with [FAM]-tandem MSCPP106 or [FAM]-tandem mut MSCPP106 (magnification: 4×).
FIG. 9C is a series of fluorescent images of a subcutaneous transplanted tumor in a mouse administered with tandem MSCPP106 (magnification: 4×, 20× and 40×). […]

[5] = system: normal human dermal fibroblasts (NHDF); experiment: Cell selectivity of FITC-labelled peptides: penetration into NHDF; format: cell-based; settings: FITC-labelled peptide 4 μM, four hours, FIG. 2
Protocol: (§1) Among the peptides identified in Example 1, the four peptides MSCPP33, 48, 49 and 106, Poly-r9 as a positive control and MSCPP22 as a negative control were synthesized with an FITC (fluorescein isothiocyanate) (excitation wavelength: 495 nm, fluorescence wavelength: 520 nm) label, and then subjected to a hydrochloride treatment. These peptides were each obtained via contract synthesis by Sigma-Aldrich Japan (Genosis division). The MSCPP33 was dissolved in 20% DMSO. The MSCPP48 developed a precipitate following thawing of the frozen state, and was therefore subjected to a sonication treatment prior to use. The MSCPP49 and MSCPP106 were dissolved in water prior to use.
(§2) Subsequently, the penetration of each peptide into hMSC, normal human dermal fibroblasts (NHDF), and BxPC3 cells, which are an established cell line derived from human pancreatic adenocarcinoma, was confirmed. […] Following culturing, each of the cells was subjected to nuclear staining with Hoechst 33342 (excitation wavelength: 352 nm, fluorescence wavelength: 461 nm), and was then observed using a phase difference/fluorescence microscope. In FIG. 2, the images shown on the left side are FITC fluorescence images, and the images shown on the right side are merged images of the fluorescence image and the phase difference microscope image.

BxPC3 cells = experiment: Cell selectivity of FITC-labelled peptides: penetration into BxPC3 cells; format: cell-based, human; settings: FITC-labelled peptide 4 μM, four hours, FIG. 2
Protocol: as §1, §2

[6] = system: human mesenchymal stem cells (hMSC), line UE6E7T-3; experiment: Penetration of MSCPP-EGFPHIS fusion peptides into hMSC (fluorescence microscopy); format: cell-based; settings: MSCPP-EGFPHIS fusion peptide, cultured four hours, FIG. 1
Description: Using an independently prepared 9-amino acid residue peptide as a phenotype linked via puromycin to a protein-RNA chimeric random peptide library (in vitro virus library; IVVL) having an mRNA coding sequence as the corresponding genotype, a conventional IVV (in vitro virus) method was used with human mesenchymal stem cells (hMSC) as the absorption target cells to repeat a reaction cycle in a culture system, thus isolating 81 types of peptide having penetration into mesenchymal stem cells (mesenchymal stem cell-penetrating peptide; MSCPP).
Next, fusion peptides (having a His tag formed from six histidine residues at the C-terminus of the fusion peptide) of each of the 81 isolated MSCPP and EGFP (excitation wavelength: 488 nm, fluorescence wavelength: 509 nm) (MSCPP-EGFPHIS) were produced. The penetration properties into hMSC were evaluated for each of the MSCPP-EGFPHIS. Cells of the hMSC line UE6E7T-3 were used as the hMSC. An RPMI 1640 medium containing 10% FBS was used as the medium. The UE6E7T-3 cells were inoculated into a 96-well plate, medium containing each MSCPP-EGFPHIS (5 μL of fusion peptide solution and 50 μL of medium per well) was added, and the mixtures were cultured for four hours. Following culturing, the cells were inspected under a fluorescence microscope. In FIG. 1, “EGFPHIS” represents EGFP having a His tag formed from six histidine residues at the C-terminus, but not being fused with an MSCPP peptide. Further, “Poly-r9” (9-residue continuous D-arginine) is a non-selective membrane-permeable peptide that is currently widely used.

hMSC [7] = experiment: Cell selectivity of FITC-labelled peptides: penetration into hMSC; format: cell-based, human; settings: FITC-labelled peptide 4 μM, four hours, FIG. 2
Protocol: as §1
Subsequently, the penetration of each peptide into hMSC, normal human dermal fibroblasts (NHDF), and BxPC3 cells, which are an established cell line derived from human pancreatic adenocarcinoma, was confirmed. In the case of the hMSC, cells that had been inoculated into a 24-well plate at 4×10^4 cells/well and then cultured for 24 hours in an MSC medium were used. In the case of the NHDF and BxPC3 cells, cells that had been inoculated into a 24-well plate at 4×10^4 cells/well and then cultured for 24 hours in an RPMI 1640 medium containing 10% FBS were used. Mediums (RPMI 1640 medium containing 10% FBS) containing 4 μM of each of the peptides were then added to each of the cells and cultured for four hours. Following culturing, each of the cells was subjected to nuclear staining with Hoechst 33342 (excitation wavelength: 352 nm, fluorescence wavelength: 461 nm), and was then observed using a phase difference/fluorescence microscope. In FIG. 2, the images shown on the left side are FITC fluorescence images, and the images shown on the right side are merged images of the fluorescence image and the phase difference microscope image.

Compound | degradation resistance in human plasma [2] | penetration into human bone marrow-derived mesenchymal stem cells (hMSC) [6] | absorption into hMSC (hMSC [7]) | other results
CC(C)C[C@H](NC(=O)[C@H](Cc1c[nH]cn1)NC(=O)[C@H](CCCNC(=N)N)NC(=O)[C@H](Cc1ccccc1)NC(=O)[C@H](CC(C)C)NC(=O)[C@H](CCC(=O)O)NC(=O)[C@H](C)NC(=O)[C@H](CS)NC(=O)[C@H](CCCCN)NC(=O)CNC(=O)[C@H](CC(C)C)NC(=O)[C@H](Cc1c[nH]cn1)NC(=O)[C@H](CCCNC(=N)N)NC(=O)[C@H](Cc1ccccc1)NC(=O)[C@H](CC(C)C)NC(=O)[C@H](CCC(=O)O)NC(=O)[C@H](C)NC(=O)[C@H](CS)NC(=O)[C@@H](N)CCCCN)C(=O)O [tandem MSCPP106, KCAELFRHL-G-KCAELFRHL] (H-KCAELFRHLGKCAELFRHL-OH; N-terminus and C-terminus assumed) | excellent degradation resistance compared with the single MSCPP106 | – | – | resistance to intracellular digestion (degradation) (hMSC [1]): at least 24 hours; absorption into the CAF of the cancer stroma [3]: selective absorption; absorption into cancer stroma, comparison of peptides ([4]; FIG. 9B): even better absorption into cancer stroma than tandem mut MSCPP106; absorption into hMSC-derived hCAF and mouse MSC-derived CAF ([4]; FIG. 9C): excellent absorption into both forms of CAF
CSC[C@H](NC(=O)[C@H](CCCCN)NC(=O)CNC(=O)[C@H](CC(C)C)NC(=O)[C@H](Cc1c[nH]cn1)NC(=O)[C@H](CCCNC(=N)N)NC(=O)[C@H](Cc1ccccc1)NC(=O)[C@H](CC(C)C)NC(=O)[C@H](CCC(=O)O)NC(=O)[C@H](C)NC(=O)[C@H](CSC)NC(=O)[C@@H](N)CCCCN)C(=O)N[C@@H](C)C(=O)N[C@@H](CCC(=O)O)C(=O)N[C@@H](CC(C)C)C(=O)N[C@@H](Cc1ccccc1)C(=O)N[C@@H](CCCNC(=N)N)C(=O)N[C@@H](Cc1c[nH]cn1)C(=O)N[C@@H](CC(C)C)C(=O)O [tandem mut MSCPP106, KmCAELFRHL-G-KmCAELFRHL] (H-KC(Me)AELFRHLGKC(Me)AELFRHL-OH; N-terminus and C-terminus assumed) | excellent degradation resistance compared with the single MSCPP106 | – | – | –
KCAELFRHL [MSCPP106] | – | exhibited penetration | high absorption and fixed selective absorption; also recorded: efficient absorption | absorption into NHDF [5]: lower absorption into NHDF compared with the absorption into hMSC; absorption into the pancreatic cancer cells BxPC3 (BxPC3 cells): low absorption; fluorescence observed in hMSC [6]: Particularly strong fluorescence
RRWMQWPWH [MSCPP49] | – | exhibited penetration | high absorption and fixed selective absorption | –
RTHPVWSRT [MSCPP48] | – | exhibited penetration | high absorption and fixed selective absorption | –
WPPLQRWRN [MSCPP33] | – | exhibited penetration | high absorption and fixed selective absorption | –
